Data reported in patent publication US11884710B2, “Peptide compounds and methods of use in wound healing” (priority 2013, dated 2024).
Square brackets hold non-standard residues; d marks the D form. Ends that are not written are not given here. PEG2 = NCCOCCOCCC(=O)O

Legend:
[1] = tested on: Pseudomonas aeruginosa ATCC 27853; test: In vitro bactericidal assay, P. aeruginosa ATCC 27853 (FIGS. 12-14); format: cell-based; conditions: for bactericidal effectiveness concluded by extrapolation: even at substantially lower concentrations of the peptide
Method: Each of the test peptides was used at 25, 12.5 6.25, and 3.12 μM. The gentamicin was used at 4 μg/ml. 1×10^6/ml Pseudomonas aeruginosa ATCC® 27853™ (American Type Culture Collection, Manassas, Va.) were incubated with the peptides, negative buffer control (tryptone saline), and positive control gentamicin for 180 minutes at pH 7.2. 50 μl aliquots were plated out on agar plates and incubated overnight. Colony forming units were counted after overnight incubation and CFU/ml calculated.
Each of the test peptides was used at 25, 12.5, 6.25, and 3.12 μM. The gentamicin was used at 4 μg/ml. 1×10^6/ml Pseudomonas aeruginosa ATCC® 27853™ (American Type Culture Collection, Manassas, Va.) were incubated with the peptides, negative buffer control (tryptone saline), and positive control gentamicin for 180 minutes at pH 5.5. 50 μl aliquots were plated out on agar plates and incubated overnight. Colony forming units were counted after overnight incubation and CFU/ml calculated.
FIG. 14 is a comparison of bactericidal activity of CAP37 peptides 120-146WR (SEQ ID NO:30), 120-146WH (SEQ ID NO:31), 120-146QR (SEQ ID NO:28), 120-146QH (SEQ ID NO:29), 120-146QR-5RMP (SEQ ID NO:32), and 120-146QH-5RMP (SEQ ID NO:33) for Pseudomonas aeruginosa ATCC® 27853™ (American Type Culture Collection, Manassas, Va.). 1×10^6/ml Pseudomonas aeruginosa ATCC® 27853™ were incubated with the peptides at 150, 75, and 37.5 μg/ml and negative buffer control (tryptone saline) for 180 minutes at pH 5.5. 50 μl aliquots were plated out on agar plates and incubated overnight. Colony forming units were counted after overnight incubation and CFU/ml calculated.
(§1) For FIGS. 10-13, in vitro bactericidal assays were performed using a starting inoculum of 1×10^6 CFU/ml of the bacterial suspension. The CFU remaining at the end of the 60-180 minute incubation was determined, and the data was plotted as log reduction in CFU/ml.
(§2) In particular, each of the test peptides (CAP37 peptides 120-146WR, 120-146WH, and 95-122 (SEQ ID NOS:30, 31, and 26, respectively)) was used at 25, 12.5, 6.25, and 3.12 μM. Gentamicin was used at 4 μg/ml. 1×10^6/ml Acinetobacter baumannii ATCC® BAA-747™ or Pseudomonas aeruginosa ATCC® 27853™ (American Type Culture Collection, Manassas, Va.) were incubated with the peptides, negative buffer control (tryptone saline), and positive control gentamicin at pH 5.5 or 7.2. A 60 minute incubation was used for Acinetobacter baumannii ATCC® BAA-747™, while a 180 minute incubation was used for Pseudomonas aeruginosa ATCC® 27853™. 50 μl aliquots were plated out on agar plates and incubated overnight. Colony forming units were counted after overnight incubation and CFU/ml calculated.
For FIG. 14, 1×10^6/ml Pseudomonas aeruginosa ATCC® 27853™ were incubated with each of the test peptides (CAP37 peptides 120-146WR, 120-146WH, 120-146QR, 120-146QH, 120-146QR-5RMP, and 120-146QH-5RMP (SEQ ID NOS:30, 31, 28, 29, 32, and 33, respectively)) at 150, 75, and 37.5 μg/ml, or negative buffer control (tryptone saline), for 180 minutes at pH 5.5. 50 μl aliquots were plated out on agar plates and incubated overnight. Colony forming units were counted after overnight incubation and CFU/ml calculated.

[2] = tested on: Acinetobacter baumannii ATCC BAA-747; test: In vitro bactericidal assay, A. baumannii ATCC BAA-747 (FIGS. 10-11); format: cell-based; conditions: 60 minutes, peptides 3.12-25 μM, gentamicin 4 μg/ml
Method: Each of the test peptides was used at 25, 12.5 6.25 and 3.12 μM. The gentamicin was used at 4 μg/ml. 1×10^6/ml Acinetobacter baumannii ATCC® BAA-747™ (American Type Culture Collection, Manassas, Va.) were incubated with the peptides, negative buffer control (tryptone saline), and positive control gentamicin for 60 minutes at pH 5.5. 50 μl aliquots were plated out on agar plates and incubated overnight. Colony forming units were counted after overnight incubation and CFU/ml calculated.
Each of the test peptides was used at 25, 12.5 6.25 and 3.12 μM. The gentamicin was used at 4 μg/ml. 1×10^6/ml Acinetobacter baumannii ATCC® BAA-747™ (American Type Culture Collection, Manassas, Va.) were incubated with the peptides, negative buffer control (tryptone saline), and positive control gentamicin for 60 minutes at pH 7.2. 50 μl aliquots were plated out on agar plates and incubated overnight. Colony forming units were counted after overnight incubation and CFU/ml calculated.
as §1, §2

[3] = tested on: full thickness excisional wounds; test: Swine full thickness excisional dermal wound model; format: in vivo; conditions: for Mean Wound Healing (%): topical 3 mg/ml, 0.20 ml daily
Method: In this Example, peptide compounds of the presently disclosed inventive concepts were evaluated as to their activity on the dermal wound healing process in a clinically relevant swine full thickness excisional wound model. Three different peptide formulations (Group B, Peptide 95-122 (SEQ ID NO:26); Group C, Peptide 120-146WH (SEQ ID NO:31); and Group D, Peptide 120-146QH-5RMP (SEQ ID NO:33)) were each evaluated at the same concentration (3 mg/ml). Sterile saline served as the control (Group A).
(§3) Full thickness excisional wounds were induced on the dorsum of swine (N=3) using a 1.0 cm biopsy punch. Treatments were administered (0.20 ml) to each wound (N=6 wounds per group), and the wounds were dressed with standard occlusive dressing ([…]™, 3M Corporation, St. Paul, Minn.). Treatments were reapplied daily and dressings changed. Clinical wound healing observations and wound area (2 mm) measurements were performed on days 0, 3, 5, 7, 10, and 14 post-wounding. Wound area (2 mm) data were expressed as percentage (%) of wound healing. Animals were terminated on day 14 with wounds harvested and processed for histological evaluation. […] All peptide formulation treatment groups healed faster with greater rate of closure and re-epithelialization over time, as compared to the saline control (Group A).

[4] = tested on: full thickness excisional wounds; test: Histopathology of swine dermal wounds; format: in vivo; parameters: Inflammation, mean histopathology score / Angiogenesis, mean histopathology score / Granulation, mean histopathology score / Epithelization, mean histopathology score: scale not given here
Method: The characteristics that were measured are required to indicate features of a well-healed wound. Inflammation should be low and re-epithelialization high.
as §3
The histology correlated with the clinical observations. […] There were minimal differences in the amount or character of granulation tissue, inflammation, and angiogenesis. All the wounds were well filled and vascularized.

[5] = tested on: human corneal epithelial cell (HCEC); test: HCEC chemotaxis, modified Boyden chemotaxis chamber; format: cell-based; conditions: for HCEC migration compared with the whole CAP37 protein, in words: 120-146QH at 10^−6 M and 10^−8 M, 120-146QR concentration not stated; for migration of HCECs vs buffer control, in words: 3 hours at 37° C.
Method: The effect of buffer control (0.1% BSA in Gey's buffer), heparin binding-epidermal growth factor (HB-EGF, 50 ng/ml), recombinant CAP37 (rCAP37, 250 ng/ml), 120-146QH (10^−12M, 10^−10 M, 10^−8 M, 10^−6M, and 10^−4M,) and 120-146QR (10^−10M, 10^−8M, 10^−6M, and 10^−4M) on HCEC chemotaxis was determined by the modified Boyden chemotaxis chamber method. HCEC chemotaxis was measured in response to HB-EGF, rCAP37, and peptides 120-146QH (SEQ ID NO:29) and 120-146QR (SEQ ID NO:28) after incubation for 3 hours at 37° C. Chemotaxis is expressed as a percent migration. The buffer control (no chemoattractant) is arbitrarily assigned the value of 100% migration. Data are expressed as means±SEM and are calculated from 6 observations for each test point. **P<0.01 by Wilcoxon signed-rank test as compared to controls.
Chemotaxis: Chemotaxis assays were performed using the modified Boyden chemotaxis chamber assay. Peptide 120-146QH was used at 10^−4 M, 10^−6 M, 10^−8 M, 10^−10 M, and 10^−12 M, and peptide 120-146QR was used at 10^−4 M, 10^−6 M, 10^−8M, and 10^−10M.

[6] = wounds harvested on day 14, 3 mg/ml

Substance: gentamicin [reference compound]
- bactericidal activity, in words ([1]; 120-146WR at 25 μM, gentamicin 4 μg/ml): highly active
- reduction of CFU/ml ([1]; pH 5.5, 180 minutes, gentamicin 4 μg/ml): 2 log
- bactericidal activity, in words ([1]; pH 5.5, 180 minutes, peptides 3.12-25 μM, gentamicin 4 μg/ml): not as effective as the peptides
- bactericidal activity, in words ([2]; pH 5.5): unable to kill the bacteria
- bactericidal activity, in words ([2]; pH 7.2): active against the bacteria

Substance: (AEEP)-(AEEP)-RRRRGTRCQVAGWGSWHSGGRLSRFPRFVNVR ([PEG2][PEG2]RRRRGTRCQVAGWGSWHSGGRLSRFPRFVNVR) [120-146WH-5RMP]
- predicted killing capabilities [1]: superior killing capabilities
- bactericidal effectiveness concluded by extrapolation [1]: highly effective

Substance: (AEEP)-(AEEP)-RRRRGTRCQVAGWGSQHSGGRLSRFPRFVNVR ([PEG2][PEG2]RRRRGTRCQVAGWGSQHSGGRLSRFPRFVNVR) [120-146QH-5RMP]
- reduction in CFU ([1]; FIG. 14, pH 5.5, 180 minutes, even at the lower concentration (75 μg/ml)): ~6 log
- Mean Wound Healing (%) ([3]; Day 0): 0.0%
- Mean Wound Healing (%) ([3]; Day 3): 22.5%
- Mean Wound Healing (%) ([3]; Day 5): 34.1%
- Mean Wound Healing (%) ([3]; Day 7): 64.1%
- Mean Wound Healing (%) ([3]; Day 10): 93.7%
- Mean Wound Healing (%) ([3]; Day 14): 98.0%
- percentage of wound healing vs saline control, in words ([3]; days 10 and 14 post-wounding, 3 mg/ml): significant (p<0.05) increase in the percentage of wound healing
- epidermal resurfacing and maturation vs saline control, in words ([4]; day 14 post-wounding): greater extent of epidermal resurfacing and maturation of the epidermis
- Angiogenesis, mean histopathology score [4, 6]: 1.3
- Epithelization, mean histopathology score [4, 6]: 4.0
- Granulation, mean histopathology score [4, 6]: 4.0
- Inflammation, mean histopathology score [4, 6]: 0.5

Substance: (AEEP)-(AEEP)-RRRRGTRCQVAGWGSWRSGGRLSRFPRFVNVR ([PEG2][PEG2]RRRRGTRCQVAGWGSWRSGGRLSRFPRFVNVR) [120-146WR-5RMP]
- predicted killing capabilities [1]: superior killing capabilities
- bactericidal effectiveness concluded by extrapolation [1]: highly effective

Substance: GTRCQVAGWGSQRSGGRLSRFPRFVNV (listed as Homo sapiens) [Peptide 120-146QR]
- activity in in vitro killing assays, in words ([1]; FIG. 14, pH 5.5, 180 minutes): relatively inactive
- HCEC migration compared with the whole CAP37 protein, in words [5]: less than the migration obtained with the whole protein
- migration of HCECs vs buffer control, in words ([5]; peptide at 10^−6 M and 10^−8 M): significantly increase migration of HCECs

Substance: GTRCQVAGWGSQHSGGRLSRFPRFVNV (derivative of peptide of Homo sapiens CAP37 protein) [Peptide 120-146QH]
- activity in in vitro killing assays, in words ([1]; FIG. 14, pH 5.5, 180 minutes): relatively inactive
- HCEC migration compared with the whole CAP37 protein, in words [5]: comparable to the migration obtained with the whole CAP37 protein
- migration of HCECs vs buffer control, in words ([5]; peptide at 10^−4 M, 10^−6 M, 10^−8 M, and 10^−10 M): significantly increase migration of HCECs
